According to patent US9469647B2, “Salt crystals” (INTRA-CELLULAR THERAPIES, INC., priority 2012, dated 2016):
Structures can show the parent of a compound that is named as a salt.

What was measured:
[1] = Solubility study of phosphate salt crystals in aqueous media at pH 1.2-6.8; format: physicochemical
Description: The (6aR,9aS)-5,6a,7,8,9,9a-hexahydro-5-methyl-3-(phenylamino)-2-((4-(6-fluoropyridin-2-yl)phenyl)methyl)-cyclopent[4,5]imidazo[1,2-a]pyrazolo[4,3-e]pyrimidin-4(2H)-one mono-phosphate salt crystals are assessed for its aqueous solubility at lower pH. The (amorphous) free base is also tested for reference at a limited range of pH.
Phosphate (buffer) solutions are made at 50 mM concentration and the pH is adjusted to pH 2, 3, 4, 5 or 6.8 using either 3M phosphoric acid (lower pH) or 3M NaOH (higher pH). 0.1N HCl is also used, pH is measured as 1.2.
20 mg of the (6aR,9aS)-5,6a,7,8,9,9a-hexahydro-5-methyl-3-(phenylamino)-2-((4-(6-fluoropyridin-2-yl)phenyl)methyl)-cyclopent[4,5]imidazo[1,2-a]pyrazolo[4,3-e]pyrimidin-4(2H)-one mono-phosphate salt crystals or free base is weighed into a glass vial, and 2 ml of the relevant aqueous media is added. The vials are shaken. After 1 hr, a sample (˜1 ml) is removed via syringe, and filtered through a syringe filter (0.2 micron) into an HPLC vial. After shaking the suspensions for 16 hours, a second sample is taken. All samples are then diluted with the HPLC diluent by a factor of 1000 (except the pH 6.8 samples which are diluted ×10), and re-analysed by HPLC. In cases where the entire solid dissolved, the 2 ml solution is added to another 20 mg salt or free base.

[2] = USP2 dissolution study at pH 1 and 4.5; format: physicochemical
Description: The rate of dissolution is an important factor in the bioavailability of an active pharmaceutical ingredient (API). This is commonly tested using standard conditions e.g. USP 2 dissolution testing. The pH of the aqueous media used can be correlated with the pH of the stomach (low pH −1-2) and the intestines (intermediate acidic pH −4-6). Therefore pH 1 (0.1 M HCl) and a citrate buffer at pH 4.5 (0.2M) are used for the dissolution testing.
The (6aR,9aS)-5,6a,7,8,9,9a-hexahydro-5-methyl-3-(phenylamino)-2-((4-(6-fluoropyridin-2-yl)phenyl)methyl)-cyclopent[4,5]imidazo[1,2-a]pyrazolo[4,3-e]pyrimidin-4(2H)-one mono-phosphate salt crystals are weighed (×4) into size 0 white gelatine capsules at 119 mg per capsule (equivalent to 100 mg API). The (6aR,9aS)-5,6a,7,8,9,9a-hexahydro-5-methyl-3-(phenylamino)-2-((4-(6-fluoropyridin-2-yl)phenyl)methyl)-cyclopent[4,5]imidazo-[1,2-a]pyrazolo[4,3-e]pyrimidin-4(2H)-one is also weighed (×2) into white gelatine capsules at 100 mg per capsule. These capsules are then dissolved using the standard set up of the USP 2 dissolution equipment i.e., in 1000 mL of the relevant aqueous media, stirrers set at 50 rpm, capsules placed in metal coils to weigh them down, media equilibrated with the water bath set at 37″C. Analytical samples are removed via canula, with an initial filter on the canula and secondary filtering through 0.2 micron syringe filters. The samples are then analysed without dilution by HPLC for API content. Calibration for HPLC is run using both the free base API and the phosphate salt.

[3] = Single rising dose clinical study (pharmacokinetic profile); format: in vivo; settings: plasma, human, aqueous solution, Mean (SD)
Description: In a single rising dose clinical study involving 55 active subjects (15 placebo) with 11 active:3 placebo for each dose level of 10, 25, 75, 150, 300 mg, the mono-phosphate salt crystals of (6aR,9aS)-5,6a,7,8,9,9a-hexahydro-5-methyl-3-(phenylamino)-2-((4-(6-fluoropyridin-2-yl)phenyl)methyl)-cyclopent[4,5]imidazo[1,2-a]pyrazolo[4,3-e]pyrimidin-4(2H)-one is dissolved in water, and this aqueous solution is orally administered. The pharmacokinetic profile is setforth below in Table 7.

[4] = Solid-state properties of the mono-phosphate salt crystals for galenic formulation; format: physicochemical
[5] = pH 5, 50 mM phosphate buffer, diluted 1000 times before HPLC
[6] = pH 6.8, 50 mM phosphate buffer, diluted 10 times before HPLC

`CN1C(=O)c2c(nn(Cc3ccc(-c4cccc(F)n4)cc3)c2Nc2ccccc2)N2C1=N[C@@H]1CCC[C@@H]12` [Phosphate salt, (6aR,9aS)-5,6a,7,8,9,9a-hexahydro-5-methyl-3-(phenylamino)-2-((4-(6-fluoropyridin-2-yl)phenyl)methyl)-cyclopent[4,5]imidazo[1,2-a]pyrazolo[4,3-e]pyrimidin-4(2H)-one] showed a solubility ([1]; 50 mM phosphate buffer, pH 4, aqueous buffer, thermodynamic from solid, pH 4) of no more than 7700 µg/mL, a solubility at 1 hr ([1]; 50 mM phosphate buffer, pH 4, aqueous buffer, thermodynamic from solid, pH 4, 50 mM phosphate buffer, read-out: Solubility after 1 hr) of 2500 µg/mL and a solubility at 16 hr ([1]; 50 mM phosphate buffer, pH 4, aqueous buffer, thermodynamic from solid, pH 4, 50 mM phosphate buffer, read-out: Solubility after 16 hrs) of 7700 µg/mL. For the same compound, the “Solubility after 1 hr” value ([1]; pH 1.2 (0.1N HCl)) was greater than 20000 µg/mL, the “Solubility after 16 hrs” value ([1]; pH 1.2 (0.1N HCl)) was greater than 20000 µg/mL and the “Solubility after 1 hr” value ([1]; pH 2, 50 mM phosphate buffer) was 13600 µg/mL. The “Solubility after 16 hrs” value ([1]; pH 2, 50 mM phosphate buffer) was 17000 µg/mL, the “solubility compared with the amorphous free base” value ([1]; pH 3) was “better solubility than the amorphous free base” and the “Solubility after 1 hr” value ([1]; pH 3, 50 mM phosphate buffer) was 8400 µg/mL. For the same compound, the “Solubility after 16 hrs” value ([1]; pH 3, 50 mM phosphate buffer) was 9400 µg/mL, the “Solubility after 1 hr” value [1, 5] was “Below detection limit*” and the “Solubility after 16 hrs” value [1, 5] was “Below detection limit*”. For the same compound, the “Solubility after 1 hr” value [1, 6] was “Below detection limit*”, the “Solubility after 16 hrs” value [1, 6] was “Below detection limit*” and the “dissolution rate compared with the free base” value ([2]; USP 2, pH 1 and pH 4.5) was “better dissolution rates than the free base”. For the same compound, the “solubility at low pH in dissolution study” value ([2]; pH 1 (0.1 M HCl), 37 C) was “good solubility”, the “time to full dissolution” value ([2]; pH 1, about 0.1 mg/mL (API equivalent), capsule in 1000 mL, 50 rpm) was “approximately 15 minutes” and the AUC(0-inf) ([3]; single oral dose 10 mg) was 772 ng·h/mL. For the same compound, the AUC(0-t) ([3]; single oral dose 10 mg) was 768 ng·h/mL, the Cmax ([3]; single oral dose 10 mg) was 89.7 ng/mL and the Tmax ([3]; single oral dose 10 mg) was 1 h. The AUC(0-inf) ([3]; single oral dose 25 mg) was 1340 ng·h/mL, the AUC(0-t) ([3]; single oral dose 25 mg) was 1340 ng·h/mL and the Cmax ([3]; single oral dose 25 mg) was 155 ng/mL. For the same compound, the Tmax ([3]; single oral dose 25 mg) was 0.5 h, the AUC(0-inf) ([3]; single oral dose 75 mg) was 3050 ng·h/mL and the AUC(0-t) ([3]; single oral dose 75 mg) was 3040 ng·h/mL. It also gave a Cmax ([3]; single oral dose 75 mg) of 334 ng/mL, a Tmax ([3]; single oral dose 75 mg) of 1 h and an AUC(0-inf) ([3]; single oral dose 150 mg) of 5050 ng·h/mL. It also gave an AUC(0-t) ([3]; single oral dose 150 mg) of 5040 ng·h/mL, a Cmax ([3]; single oral dose 150 mg) of 585 ng/mL and a Tmax ([3]; single oral dose 150 mg) of 1 h. The AUC(0-inf) ([3]; single oral dose 300 mg) was 8190 ng·h/mL, the AUC(0-t) ([3]; single oral dose 300 mg) was 8180 ng·h/mL and the Cmax ([3]; single oral dose 300 mg) was 828 ng/mL. The Tmax ([3]; single oral dose 300 mg) was 1 h, the solubility ([4]; general statement) was “good solubility” and the hygroscopicity ([4]; solid salt crystals) was “low hygroscopicity”. The stability ([4]; solid salt crystals) was “particularly stable”.
